Measurements as given in patent US12291522B2, “Galectin-3 inhibitors” (BRISTOL-MYERS SQUIBB COMPANY, priority 2020, dated 2025).
Read-outs that look alike come from different tables or passages of the source.

Tests used:
[1] = target: His-tagged recombinant human Gal-3 (hGal-3) (Homo sapiens, UniProt P17931); assay: Gal-3 HTRF assay (His-tagged hGal-3 / B-ASF); type: binding; details: 15 nM hGal-3, 15 nM B-ASF
Procedure: ASSAY BUFFER Composition: 25 mM HEPES, 100 mM NaCl, 0.005% Tween 20, 0.05% BSA prepared in sterile water (all reagents from Sigma).
• Positive Control: 100% DMSO (1 μL)+His-tagged hGal-3 (20 μL)+B-ASF (20 μL)+Anti-His Terbium Antibody (5 μL)+Strep d2 Antibody (5 μL). • Negative Control: 100% DMSO (1 μL)+His-tagged hGal-3 (20 μL)+Anti His Terbium Antibody (5 μL)+Strep d2 Aantibody (5 μL). Stocks Preparation:
PROTOCOL: The Gal-3 assays were performed in 384 white Opti plates in three replicates at room temperature with gentle shaking at 250-300 rpmFrom the original stocks, […] working stock concentrations of His-tagged recombinant human Gal-3 (hGal-3) and that of B-ASF were prepared. From the working stock, 20 μL of hGal-3 (15 nM) and 20 μL B-ASF (15 nM) were added to the plates. In Negative Control, only hGal-3 was added. A concentration range of 50× working stocks were prepared for the compounds in 100% DMSO. Aliquots of luL of the compounds were added to the wells and pre-incubated with 20 μL hGal-3 per well for 30 minutes Then 20 μL B-ASF wereadded and incubated for another 1 hour. To detect the signal, 5 μL (final conc. of 1.0 nM) terbium labelled Anti-His antibody was added and incubated for 30 min followed by adding 5 μL (final conc. of 20 nM) Streptavidin d2 and incubation for another 1 hour. The assay signal was detected using HTRF screen protocol (Excitation wavelength=340 nm, emission wavelength=615 nm/665 nm) on Envision 2104 Multilabel Reader. Data analysed using Toolset and Curve Master. Results are reported in the experimental section (IC50 in μM).

[2] = target: T1, hCRBN (NanoLuc-CRBN fusion construct in HEK-293 cells) (Homo sapiens, UniProt Q96SW2); assay: CRBN BRET Target Engagement; type: cell-based; details: NanoLuc-CRBN transfected HEK-293 cells, BRET with CRBN Probe
T1 construct: expressed in transfected cells; host or cells: HEK-293
Procedure: CRBN BRET Target Engagement (hCRBN IC50 (μM))
NanoLuc-CRBN fusion construct was transfected in HEK-293 cells using FuGENE HD (Promega) according to the manufacturer's protocol. In brief, Nluc-CRBN was diluted into Transfection Carrier DNA (Promega) 1:10 (mass/mass), to which FuGENE HD was 1:3 (μg DNA:μL FuGENE HD). One part (vol) of DNA:FuGENE HD complexes were combined with 20 parts (vol) of HEK-293 cells suspended at a density of […]. Cells were incubated for ˜20 hr at 37° C./5% CO2. Following transfection, cells were washed and resuspended at 200,000 cells/mL in OptiMEM without phenol red (Gibco).
For BRET measurements, cells were seeded in a 384-well nonbinding surface plate (Corning) plate for a final count of 10,000 cells/well. Compounds were dissolved at 10 mM in dimethylsulfoxide (DMSO) and evaluated at eleven concentrations using a high concentration of […]. CRBN Probe was used for equilibrium measurements, employing a final concentration of approximately EC50-80. For live-cell measurements, 20 nM of CRBN Probe was added. For the live-cell assay conditions, the plates were incubated for 2 hours at 37° C./5% CO2. NanoBRET NanoGlo Substrate and Extracellular Nanoluc Inhibitor (Promega) were added according to manufacturer's guidelines. For lytic cell measurements, digitonin was added to the cells to a final concentration of 50 μg/mL and 20 nM of CRBN Probe was added. To measure NanoBRET in permeabilized cells, extracellular Nluc inhibitor was omitted during the detection step. For all BRET experiments, the Envision 2015 (Perkin Elmer) equipped with a BRET2 Enh mirror, BRET 647 nM/75 nM Bandwidth and BC703 460 nM/80 nM Bandwidth filters was used for readouts. Each read was integrated for 0.5 s.
To determine compound potency (IC50), BRET ratios for each dilution series was first normalized to a % Inhibition value via Equation 1, where “S” represents Sample BRET, “B” represents Background BRET, and “T” represents Total BRET. In this equation, the background control (B) consists of NanoLuc-CRBN expressing cells and no CRBN Probe. The total BRET Ratio (T) consists of NanoLuc-CRBN expressing cells, CRBN Probe, and an amount of DMSO at a concentration equivalent to that added when testing compounds.
Following normalization, the percent inhibition values are plotted as a function of compound concentration and fit to Equation 2. […]

[3] = target: T2, Gal3 (Human Galectin-3) in THP-1 cells (Homo sapiens, UniProt P17931); assay: ELISA Gal3 Degradation Assay in THP-1 Cells; type: cell-based; details: 48 hours, culture media Gal3 by ELISA
T2 construct: host or cells: THP-1
Procedure: [formula] ELISA Gal3 Degradation Assay in THP-1 Cells
THP-1 cells (ATCC, Cat #TIB-202), a human monocyte cell line derived from leukemia were plated at 2E6 cells/mL in 200 uL/well of RPMI 1640 (ThermoFisher, Cat #11835) in 96-well plates. Cells were treated with DMSO as a control and various concentrations of compounds for 48 hours. After the treatment, the culture media were collected. The PBS washed cell pellets were lysed in Lysis Buffer (Cell Signaling, Cat #9803) supplemented with 1XProtease Inhibitor Cocktail (Cell Signaling, Cat #5872). Gal3 levels in culture media and cell lysates were quantified by ELISA assays (Human Galectin-3 DuoSet ELISA kit, R&D Systems, Cat #DY1154) according to manufacturer's instructions. The cell culture media were also used for the assessment of cellular toxicity (LDH Assay kit, R&D Systems, DY994). The IC50 (degradation concentration at 50%) values were calculated based on the cellular Gal3 protein levels using DMSO as the control.

[4] = test 1, read-out: Supernatant (IC50) test 1
[5] = test 2, read-out: Supernatant (IC50) test 2

T1 sequence (Q96SW2 whole entry, the tested form may be a part): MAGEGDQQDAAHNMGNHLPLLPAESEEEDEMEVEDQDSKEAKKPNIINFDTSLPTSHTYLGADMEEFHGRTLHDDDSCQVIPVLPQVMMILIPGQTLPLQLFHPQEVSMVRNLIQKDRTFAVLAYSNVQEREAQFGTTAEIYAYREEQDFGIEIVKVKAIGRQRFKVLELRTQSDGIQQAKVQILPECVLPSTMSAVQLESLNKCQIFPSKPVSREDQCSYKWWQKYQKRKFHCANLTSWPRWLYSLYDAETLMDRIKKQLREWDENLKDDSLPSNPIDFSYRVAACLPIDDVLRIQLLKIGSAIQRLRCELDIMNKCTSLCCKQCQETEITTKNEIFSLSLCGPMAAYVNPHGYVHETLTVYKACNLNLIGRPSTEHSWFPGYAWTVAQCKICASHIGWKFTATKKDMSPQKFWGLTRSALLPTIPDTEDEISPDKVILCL
Sequence of His-tagged recombinant human Gal-3 (hGal-3) (P17931 whole entry): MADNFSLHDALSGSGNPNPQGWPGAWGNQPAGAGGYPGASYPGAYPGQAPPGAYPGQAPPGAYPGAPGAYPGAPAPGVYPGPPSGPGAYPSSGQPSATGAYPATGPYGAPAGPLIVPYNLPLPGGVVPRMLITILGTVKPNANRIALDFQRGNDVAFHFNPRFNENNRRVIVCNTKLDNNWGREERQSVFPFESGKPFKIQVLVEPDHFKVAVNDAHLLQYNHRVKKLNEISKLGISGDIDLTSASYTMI
T2 sequence (P17931 whole entry): as above

SMILES | IC50 [1] [nM] | IC50 [2] [nM] | IC50 [3, 4] [nM] | IC50 [3, 5] [nM]
Cc1nc([C@@H]2O[C@H](CO)[C@H](O)[C@H](n3cc(-c4cc(F)c(Cl)c(F)c4)nn3)[C@H]2OCC(=O)N[C@H]2C[C@@H](Oc3ccc(C(=O)Nc4ccc5c(c4)CN([C@@H]4CCC(=O)NC4=O)C5=O)nc3)C2)n(-c2cc(Cl)ccc2C(F)(F)F)n1 [Example 6, 5-(cis-3-(2-(((2S,3R,4S,5R,6R)-2-(1-(5-chloro-2-(trifluoromethyl)phenyl)-3-methyl-1H-1,2,4-triazol-5-yl)-4-(4-(4-chloro-3,5-difluorophenyl)-1H-1,2,3-triazol-1-yl)-5-hydroxy-6-(hydroxymethyl)tetrahydro-2H-pyran-3-yl)oxy)acetamido)cyclobutoxy)-N-(2-((R)-2,6-dioxopiperidin-3-yl)-1-oxoisoindolin-5-yl)picolinamide] | 74 | > 50000 | 39 | 15
Cc1nc([C@@H]2O[C@H](CO)[C@H](O)[C@H](n3cc(-c4cc(F)c(Cl)c(F)c4)nn3)[C@H]2OCC(=O)N2CCC(COc3ccc(C(=O)Nc4ccc5c(c4)CN(C4CCC(=O)NC4=O)C5=O)cc3)CC2)n(-c2cc(Cl)ccc2C(F)(F)F)n1 (some centres unmarked) [Example 27] | 312 | 374 | – | 40
Cc1nc([C@@H]2O[C@H](CO)[C@H](O)[C@H](n3cc(-c4cc(F)c(Cl)c(F)c4)nn3)[C@H]2OCC(=O)N2CCC(Oc3ccc(C(=O)Nc4ccc5c(c4)CN(C4CCC(=O)NC4=O)C5=O)cc3)CC2)n(-c2cc(Cl)ccc2C(F)(F)F)n1 (some centres unmarked) [Example 31] | 139 | 447 | 50 | 14
Cc1nc([C@@H]2O[C@H](CO)[C@H](O)[C@H](n3cc(-c4cc(F)c(Cl)c(F)c4)nn3)[C@H]2OCC(=O)N2CC(COc3ccc(C(=O)Nc4cccc5c4CN(C4CCC(=O)NC4=O)C5=O)cc3)C2)n(-c2cc(Cl)ccc2C(F)(F)F)n1 (some centres unmarked) [Example 30] | 86 | 10600 | 854 | 50
Cc1nc([C@@H]2O[C@H](CO)[C@H](O)[C@H](n3cc(-c4cc(F)c(Cl)c(F)c4)nn3)[C@H]2OCC(=O)N2CC(COc3ccc(C(=O)Nc4ccc5c(c4)CN(C4CCC(=O)NC4=O)C5=O)nc3)C2)n(-c2cc(Cl)ccc2C(F)(F)F)n1 (some centres unmarked) [Example 26] | 85 | 251 | 9 | 9
Cc1nc([C@@H]2O[C@H](CO)[C@H](O)[C@H](n3cc(-c4cc(F)c(Cl)c(F)c4)nn3)[C@H]2OCC(=O)N2CC(Oc3ccc(C(=O)Nc4ccc5c(c4)CN(C4CCC(=O)NC4=O)C5=O)nc3)C2)n(-c2cc(Cl)ccc2C(F)(F)F)n1 (some centres unmarked) [Example 35] | 77 | 498 | 314 | 338
Cc1nc([C@@H]2O[C@H](CO)[C@H](O)[C@H](n3cc(-c4cc(F)c(Cl)c(F)c4)nn3)[C@H]2OCCOc2ccc(C(=O)Nc3ccc4c(c3)CN(C3CCC(=O)NC3=O)C4=O)cc2)n(-c2cc(Cl)ccc2C(F)(F)F)n1 (some centres unmarked) [Example 25] | 139 | 2690 | 1700 | 522
Cc1nc([C@@H]2O[C@H](CO)[C@H](O)[C@H](n3cc(-c4cc(F)c(Cl)c(F)c4)nn3)[C@H]2OCC(=O)N[C@H]2C[C@H](Oc3ccc(C(=O)Nc4ccc5c(c4)CN(C4CCC(=O)NC4=O)C5=O)cc3)C2)n(-c2cc(Cl)ccc2C(F)(F)F)n1 (some centres unmarked) [Example 15] | 420 | 380 | – | –
Cc1nc([C@@H]2O[C@H](CO)[C@H](O)[C@H](n3cc(-c4cc(F)c(Cl)c(F)c4)nn3)[C@H]2OCC(=O)N2CC(Oc3ccc(C(=O)Nc4ccc5c(c4)CN(C4CCC(=O)NC4=O)C5=O)cc3)C2)n(-c2cc(Cl)ccc2C(F)(F)F)n1 (stereo partly drawn) [Example 8, 4-((1-(2-(((2S,3R,4S,5R,6R)-2-(1-(5-Chloro-2-(trifluoromethyl)phenyl)-3-methyl-1H-1,2,4-triazol-5-yl)-4-(4-(4-chloro-3,5-difluorophenyl)-1H-1,2,3-triazol-1-yl)-5-hydroxy-6-(hydroxymethyl)tetrahydro-2H-pyran-3-yl)oxy)acetyl)azetidin-3-yl)oxy)-N-(2-(2,6-dioxopiperidin-3-yl)-1-oxoisoindolin-5-yl)benzamide] | 48 | 1420 | 281 | 38
Cc1nc([C@@H]2O[C@H](CO)[C@H](O)[C@H](n3cc(-c4cc(F)c(Cl)c(F)c4)nn3)[C@H]2OCC(=O)N[C@H]2C[C@H](Oc3ccc(C(=O)Nc4ccc5c(c4)CN(C4CCC(=O)N(C)C4=O)C5=O)cc3)C2)n(-c2cc(Cl)ccc2C(F)(F)F)n1 (some centres unmarked) [Example 17] | 140 | > 50000 | – | –
Cc1nc([C@@H]2O[C@H](CO)[C@H](O)[C@H](n3cc(-c4cc(F)c(Cl)c(F)c4)nn3)[C@H]2OCC(=O)N[C@H]2C[C@@H](Oc3ccc(C(=O)Nc4ccc5c(c4)C(=O)N(C4CCC(=O)NC4=O)C5)nc3)C2)n(-c2cc(Cl)ccc2C(F)(F)F)n1 (some centres unmarked) [Example 23] | 42 | 70 | 19 | < 10
Cc1nc([C@@H]2O[C@H](CO)[C@H](O)[C@H](n3cc(-c4cc(F)c(Cl)c(F)c4)nn3)[C@H]2OCC(=O)N[C@H]2C[C@@H](Oc3ccc(C(=O)Nc4cccc5c4CN(C4CCC(=O)NC4=O)C5=O)nc3)C2)n(-c2cc(Cl)ccc2C(F)(F)F)n1 (some centres unmarked) [Example 21] | 70 | 930 | 1040 | 23
Cc1nc([C@@H]2O[C@H](CO)[C@H](O)[C@H](n3cc(-c4cc(F)c(Cl)c(F)c4)nn3)[C@H]2OCC(=O)NCCOCCOCCNC(=O)COc2cccc3c2C(=O)N(C2CCC(=O)NC2=O)C3=O)n(-c2cc(Cl)ccc2C(F)(F)F)n1 (some centres unmarked) [Example 12] | 20 | 520 | – | –
Cc1nc([C@@H]2O[C@H](CO)[C@H](O)[C@H](n3cc(-c4cc(F)c(Cl)c(F)c4)nn3)[C@H]2OCC(=O)N2CC(Oc3ccc(C(=O)Nc4ccc5c(c4)CN(C4CCC(=O)N(C)C4=O)C5=O)cc3)C2)n(-c2cc(Cl)ccc2C(F)(F)F)n1 (some centres unmarked) [Example 28] | 98 | 10400 | – | –
